Measurements from US11415579B2, “Assay for measuring a rate of reaction between a target and a ligand candidate” (Imperial College Innovations Ltd., priority 2016, dated 2022).

Key:
[1] = Kinetic thiol consumption assay with model thiol glutathione; type: physicochemical; design: Rate constant with glutathione (k(GSH)): unit not given here; conditions: for Rate constant with glutathione (k(GSH)): 500 μM ligand, 5 μM thiol, phosphate buffer pH 8; for Rate constant with Glutathione: Protein: Glutathione, cysteine position NA, in h-1
Outline: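 GSH 5 μM, degassed phosphate buffer pH 8, TCEP beads 2% v/v; acrylamide added; RT, 1 h; fluorescence ex/em 380/470 nm; normalized to DMSO/thiol control; k from first-order exponential decay fit.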

[2] = target: T1, Cdk2(S181C) (C177A) (Homo sapiens, UniProt P24941, C177A/S181C); test: Kinetic thiol consumption assay with Cdk2 mutant S181C; type: binding; design: key to Rate enhancement, Cdk2 S181C: rate constant with Cdk2 ÷ rate constant with model thiol (fold); conditions: additional mutation C177A; for Rate constant with Cdk2 S181C: Protein: Cdk2, cysteine position S181C, in h^-1
T1 construct: poly-histidine; made in house; host or cells: E. coli
Outline: (§1)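 5 μM thiol, degassed phosphate pH 8, 2% v/v immobilized TCEP beads; 1 h RT; fluorescence ex 380/em 470 nm; normalized vs DMSO/thiol-only; first-order exponential decay fit → rate constant; Cdk2 k / model-thiol k = rate enhancement per acrylamide.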

[3] = target: T2, Cdk2(N272C) (C177A) (Homo sapiens, UniProt P24941, C177A/N272C); test: Kinetic thiol consumption assay with Cdk2 mutant N272C; type: binding; design: key to Rate enhancement, Cdk2 N272: rate constant with Cdk2 ÷ rate constant with model thiol (fold); conditions: for Rate enhancement, Cdk2 N272: Cdk2 N272, additional mutation C177A; for Rate constant with Cdk2 N272C: Protein: Cdk2, cysteine position N272C, additional mutation C177A, in h^-1
T2 construct: poly-histidine; made in house; host or cells: E. coli
Outline: as §1

[4] = target: T3, Cdk2(H71C) (C177A) (Homo sapiens, UniProt P24941, C177A/H71C); test: Kinetic thiol consumption assay with Cdk2 mutant H71C; type: binding; design: key to Rate enhancement, Cdk2 H71C: rate constant with Cdk2 ÷ rate constant with model thiol (fold); conditions: additional mutation C177A; for Rate constant with Cdk2 H71C: Protein: Cdk2, cysteine position H71C, in h^-1
T3 construct: poly-histidine; made in house; host or cells: E. coli
Outline: as §1

[5] = target: T4, Cdk2[C177A, F80C, K278C] (Homo sapiens, UniProt P24941, C177A/F80C/K278C); test: Kinetic thiol consumption assay with mutant Cdk2 as model thiol; type: binding; design: unit not given here; conditions: 500 μM ligand, 5 μM thiol, phosphate buffer pH 8
T4 construct: poly-histidine; made in house; host or cells: E. coli
Outline: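 Model thiol: His-tagged human Cdk2 C177A/F80C/K278C (two engineered surface cysteines), E. coli-expressed, 5 μM in degassed phosphate buffer pH 8 with immobilized TCEP beads (2% v/v). Fluorescence (ex/em 380/470 nm) followed over time at room temperature, normalized to DMSO/thiol control. First-order decay fit gives rate constants.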

[6] = target: T5, Cdk2(C177A, F80C) (Homo sapiens, UniProt P24941, C177A/F80C); test: Kinetic thiol consumption assay with Cdk2 mutant F80C, incl. kobs versus concentration (Kd, k2); type: binding; design: key to Rate enhancement, Cdk2 F80C: Cdk2 rate constant divided by model-thiol rate constant; conditions: additional mutation C177A; for Rate constant with Cdk2 F80C: Protein: Cdk2, cysteine position F80C, in h^-1
T5 construct: poly-histidine; made in house; host or cells: E. coli
Outline: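 His-tagged Cdk2(C177A/F80C) from E. coli or model thiol, 5 μM in degassed phosphate buffer pH 8 with TCEP beads, reacted with acrylamide ligands; fluorescence (ex/em 380/470 nm) normalized to DMSO control and fitted to first-order decay for kobs. Kd and k2 obtained from hyperbolic fit of kobs versus ligand concentration.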

[7] = target: T6, Cdk2(T182C) (C177A) (Homo sapiens, UniProt P24941, C177A/T182C); test: Kinetic thiol consumption assay with Cdk2 mutant T182C; type: binding; design: key to Rate enhancement, Cdk2 T182C: rate constant with Cdk2 ÷ rate constant with model thiol (fold); conditions: additional mutation C177A; for Rate constant with Cdk2 T182C: Protein: Cdk2, cysteine position T182C, in h^-1
T6 construct: poly-histidine; made in house; host or cells: E. coli
Outline: as §1

[8] = target: T7, Cdk2(R122C) (C177A) (Homo sapiens, UniProt P24941, C177A/R122C); test: Kinetic thiol consumption assay with Cdk2 mutant R122C; type: binding; design: key to Rate enhancement, Cdk2 R122C: rate constant with Cdk2 ÷ rate constant with model thiol (fold); conditions: additional mutation C177A; for Rate constant with Cdk2 R122C: Protein: Cdk2, cysteine position R122C, in h-1
T7 construct: poly-histidine; made in house; host or cells: E. coli
Outline: as §1

[9] = target: T8, human cyclin-dependent kinase 2 (Cdk2) (Homo sapiens, UniProt P24941); test: Kinetic thiol consumption assay with wild type Cdk2 (C177); type: binding; design: key to Rate enhancement, Cdk2 WT: k(Cdk2) divided by k(model thiol); Rate constant with Cdk2 (k(Cdk2)): unit not given here; conditions: for Rate constant with Cdk2 (k(Cdk2)): 500 μM ligand, 5 μM thiol, phosphate buffer pH 8; for Rate enhancement, Cdk2 WT: no additional mutations; for Rate constant with Cdk2 WT: Protein: Cdk2, cysteine position WT, in h^-1; for k(Cdk2)/k(Cdk2_mut) rate enhancement: model thiol Cdk2[C177A, F80C, K278C]; for k(Cdk2)/k(GSH) rate enhancement: model thiol glutathione
T8 construct: poly-histidine; made in house; host or cells: E. coli
Outline: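 His-tagged human Cdk2 (single surface cysteine C177), expressed in E. coli, or a model thiol at 5 μM in degassed phosphate buffer pH 8 was pre-treated with immobilized TCEP beads (2% v/v) before acrylamide addition. Fluorescence (ex/em 380/470 nm) was read after 1 h at room temperature, normalized to DMSO/thiol-only control and plotted versus time.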

[10] = target: T9, Cdk2(S276C) (C177A) (Homo sapiens, UniProt P24941, C177A/S276C); test: Kinetic thiol consumption assay with Cdk2 mutant S276C; type: binding; design: key to Rate enhancement, Cdk2 S276C: rate constant with Cdk2 ÷ rate constant with model thiol (fold); conditions: additional mutation C177A; for Rate constant with Cdk2 S276C: Protein: Cdk2, cysteine position S276C, in h^-1
T9 construct: poly-histidine; made in house; host or cells: E. coli
Outline: as §1

SMILES	Rate constant with glutathione (k(GSH)) [1]	Rate constant with Glutathione [1]	Rate enhancement, Cdk2 S181C [2]	Rate constant with Cdk2 S181C [2]	Rate enhancement, Cdk2 N272 [3]	Rate constant with Cdk2 N272C [3]	Rate enhancement, Cdk2 H71C [4]	Rate constant with Cdk2 H71C [4]	Rate constant with Cdk2[C177A, F80C, K278C] (k(Cdk2_mut)) [5]	Rate enhancement, Cdk2 F80C [6]	Rate constant with Cdk2 F80C [6]	Rate enhancement, Cdk2 T182C [7]	Rate constant with Cdk2 T182C [7]	Rate enhancement, Cdk2 R122C [8]	Rate constant with Cdk2 R122C [8]	Rate constant with Cdk2 (k(Cdk2)) [9]	Rate enhancement, Cdk2 WT [9]	Rate constant with Cdk2 WT [9]	k(Cdk2)/k(Cdk2_mut) rate enhancement [9]	k(Cdk2)/k(GSH) rate enhancement [9]	also measured
C=CC(=O)N1CCCN(Cc2noc(C3CC3)n2)CC1 [CA-079]	0.00593	0.009223	4.96	0.04575	0.4916	0.004534	0.2998	0.002765	0.0021	0.1408	0.001299	0.8366	0.007716	0.4828	0.004453	0.00553	1.018	0.00939	2.634	0.9328	Rate enhancement, Cdk2 S276C [10]: 0.6649; Rate constant with Cdk2 S276C [10]: 0.006132
C=CC(=O)N1CCCC2(CCCc3ccccc32)C1 (centres unmarked) [CA-084]	0.01002	0.01681	0.4258	0.007158	0.06817	0.001146	0.8209	0.0138	0.00438	1.811	0.03044	3.848	0.06469	0.2694	0.004528	0.00872	0.5186	0.008718	1.989	0.8701	Rate enhancement, Cdk2 S276C [10]: 1.079; Rate constant with Cdk2 S276C [10]: 0.01813
